Consider seven compounds from patent US8716472B2, “Tripodal cyclohexane derivatives and their use as carbohydrate receptors” (University of Rochester, priority 2006, dated 2014).

Entries after “also recorded” stand apart in the source; their conditions may differ. Some results are limits rather than exact numbers.

Data set [1] is described as follows: 1H NMR reverse titration (receptor into the sugar) and Job plot. The class given is binding. As to conditions: CDCl3, n-octyl-β-D-glucopyranoside. On the procedure:
(§1) The binding affinity of Compound 12 towards a set of octylglycosides (FIG. 15) was measured using ^1H NMR titrations in CDCl3 and UV titrations in chloroform and methanol.
A reverse titration format (receptor into the sugar) was employed for estimating binding by ^1H NMR titrations in order to avoid the complications caused due to micelles formation by octylglycosides at higher concentrations (Vacca et al., J. Am. Chem. Soc. 126:16456-16465 (2004), which is hereby incorporated by reference in its entirety). […] Job plot analysis (as modified for NMR) (Fokkens et al., Chem. Eur. J. 11:477-494 (2005), which is hereby incorporated by reference in its entirety) verified a 1:1 association between Compound 12 and n-octyl-β-D-glucopyranoside (FIG. 9B).

Data set [2] is described as follows: Fluorescence titration of n-octyl monosaccharides with receptor. The class given is binding. As to conditions: 298° K. How it is done:
as §1
(§2) The same titration protocol employed in Example 7 was also employed in this Example (methanol at 298° K; duplicate titrations).
(§3) Fluorescence titrations of 7 with the set of octylglycosides (FIG. 15) in methanol were performed to study the effect of substitution of 4-methylquinoline instead of 4-cyanopyridine on the binding affinity and selectivity of Compound 12. […] The stoichiometry of binding between Compound 7 and n-octyl-α-D-glucopyranoside was determined by Job plot to be 1:1 (FIG. 12).

Data set [3] in a line: Fluorescence titration, octanol control. The format is binding. As to conditions: 298° K. How it is done:
as §1, §2, §3

The nature of data set [4]: 1D 1H NMR titration of receptor with octyl pyranoside. The class given is binding. As to conditions: n-octyl-β-D-glucopyranoside; CDCl3, 298° K; receptor 1 mM. How it is done:
The binding affinity of Compound 11 to octyl pyranosides was tested using 1D ^1H NMR titrations in dry and deacidified CDCl3 at 298° K. The Compound 11 in fixed concentration (1 mM) was titrated with increasing amount of n-octyl-β-D-glucopyranoside and the change in the amide proton resonance of Compound 11 was monitored (FIG. 5A).

A short description of data set [5]: UV-Vis titration of n-octyl monosaccharides with receptor. The class given is binding. The conditions noted are these: for Ka in chloroform / Ka in methanol: 298° K. How it is done:
as §1
(§4) To derive quantitative binding information, UV-Vis titrations were performed. The receptor at fixed concentration was titrated with the octylglycosides in dry and deacidified chloroform or methanol (298° K). Each titration was performed in duplicate to verify results.

A short description of data set [6]: UV-Vis titration, octanol control. The class given is binding. The conditions noted are these: 298° K. How it is done: as §1, §4
Where [7] appears, read: n-octyl β-D-galacto pyranoside, UV-Vis.

In the case of `N#Cc1ccncc1` [4-cyanopyridine, reference compound], in data set [1], the “changes in carbohydrate hydroxyl chemical shifts on titration into the sugar” value is reported as “no chemical shift changes were observed”.

As for `c1cnc(C2CC(c3cnccn3)CC(c3cnccn3)C2)cn1` (stereo not drawn) [Compound 2, 2,2′,2″-cyclohexane-1,3,5-triyltripyrazine], the melting point (in general, the temperature, or range, at which the solid turns liquid) was in the range of 122 to 124 °C.

`c1cc(C2CC(c3ccncn3)CC(c3ccncn3)C2)ncn1` (stereo not drawn) [Compound 3, 4,4′,4″-cyclohexane-1,3,5-triyltripyrimidine] had a melting point of 126 to 128 °C.

Consider `Cc1cc(C2CC(c3cc(C)c4ccccc4n3)CC(c3cc(C)c4ccccc4n3)C2)nc2ccccc12` (stereo not drawn) [Compound 7, 2,2,2″-cyclohexane-1,3,5-triyltri(4-methylquinoline)], for which the Ka in methanol was 6,600 ± 200 M^−1 in data set [2] (n-octyl α-D-galacto pyranoside); 14,900±1700 M^−1 in data set [2] (n-octyl α-D-gluco pyranoside); 2600 ± 200 M⁻¹ in data set [2] (n-octyl α-D-manno pyranoside); 3,200 ± 80 M^−1 in data set [2] (n-octyl β-D-galacto pyranoside); 9,200 ± 600 M^−1 in data set [2] (n-octyl β-D-gluco pyranoside); above 400 M⁻¹ in data set [2] (n-octyl β-D-manno pyranoside). In data set [3], the Ka in methanol entry is given as “(no binding)”.

On to `Cc1cccc(NC(=O)[C@H]2C[C@@H](C(=O)Nc3cccc(C)n3)C[C@@H](C(=O)Nc3cccc(C)n3)C2)n1` [Compound 11, cis-cyclohexane-1,3,5-tricarboxylic acid tris-[(6-methyl-pyridin-2-yl)-amide]], for which the “Ka (measured affinity, NMR titration)” value in data set [4] is 91 M⁻¹.

In the case of `N#Cc1ccnc(C2CC(c3cc(C#N)ccn3)CC(c3cc(C#N)ccn3)C2)c1` (stereo not drawn) [Compound 12, 2,2′,2″-cyclohexane-1,3,5-triyltri(4-cyanopyridinyl)], the “affinity for n-octyl-β-D-galactopyranoside relative to the β-D-glucopyranoside” value in data set [5] (UV-Vis titration) is “roughly half”. For the same compound, the Ka in chloroform in data set [5] (n-octyl α-D-galacto pyranoside) was 17,600 ± 100 M^−1; in data set [5] (n-octyl α-D-gluco pyranoside), 183,000±4,200 M^−1; in data set [5] (n-octyl α-D-manno pyranoside), 6,700 ± 700 M^−1; in data set [5] (setting [7]), 9,800 ± 100 M^−1; in data set [5] (n-octyl β-D-gluco pyranoside), 25,000 ± 600 M^−1; in data set [5] (n-octyl β-D-manno pyranoside) it was “did not reach saturation up to the limit of the titration; also recorded: (not saturable)”. Further, the Ka in chloroform entry in data set [6] is recorded as “No binding; also recorded: (no binding)”. The Ka in methanol was 9,200 ± 1,100 M^−1 in data set [5] (n-octyl α-D-galacto pyranoside); 52,000 ± 2,700 M^−1 in data set [5] (n-octyl α-D-gluco pyranoside); >1,200 M^−1 in data set [5] (n-octyl α-D-manno pyranoside); 7,200 ± 1,700 M^−1 in data set [5] (setting [7]); 11,100 ± 600 M^−1 in data set [5] (n-octyl β-D-gluco pyranoside); “(not saturable)” in data set [5] (n-octyl β-D-manno pyranoside). The “changes in carbohydrate hydroxyl chemical shifts on titration into the sugar” value in data set [1] is given as “clearly visible”.

With `N#Cc1ccnc(C2CC(c3cc(C#N)ccn3)CC(c3cnccc3C#N)C2)c1` (stereo not drawn) [Compound 14, 2,2′,3′-cyclohexane-1,3,5-triyltri(4-cyanopyridinyl)], the Ka in chloroform result in data set [5] (n-octyl α-D-gluco pyranoside) is given as “no affinity”.
